Assay results from patent publication US8686115B2, “Compositions and methods for quantitatively monitoring lipids” (The Board of Trustees of the University of Illinois, priority 2009, dated 2014).
Numbering of substitutions follows the chain as printed. pKd: −log10 of the molar value.

Legend:
[1] = molecular target: T1, DAN-eENTH: epsin 1 ENTH domain variant M10C/C96A/S4W, SEQ ID NO: 2, labeled with DAN at C10 (Homo sapiens, UniProt Q9Y6I3, C96A/M10C/S4W); assay: Spectrofluorometry of DAN-eENTH binding to PtdIns(4,5)P2-containing LUVs
T1 construct: The Epsin1 ENTH domain (1-158 amino acids) was subcloned; GST (C, cleaved yes); made in house; host or cells: E. coli BL21 RIL codon plus
T1 sequence (Q9Y6I3 1-158 S4W/M10C/C96A): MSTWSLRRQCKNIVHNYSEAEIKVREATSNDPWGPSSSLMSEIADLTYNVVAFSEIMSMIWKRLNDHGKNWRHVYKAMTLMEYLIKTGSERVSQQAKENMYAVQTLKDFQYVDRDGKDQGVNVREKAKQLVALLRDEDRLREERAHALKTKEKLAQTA
Procedure: To check the feasibility of PtdIns(4,5)P2 quantification using our sensor, the change in fluorescence emission of DAN-eENTH upon membrane binding was measured by spectrofluorometry.
The theoretic curve was then constructed using these parameters.
Hitachi F-4500 spectrofluorometer was used for all cuvette-based fluorescence measurements. DAN-eENTH (typically 500 nM) was added to POPC/POPS/PtdIns(4,5)P2 (80-x:20:x) (x=0-3 mol %) LUV and the emission spectra of DAN were measured with excitation wavelength set at 392 nm. The same measurements were repeated with LUVs made of different phosphoinositides, e.g., POPC/POPS/PtdIns(3,4,5)P3 (77:20:3).

[2] = molecular target: T2, epsin 1 ENTH domain, wild type, SEQ ID NO: 1 (Homo sapiens, UniProt Q9Y6I3); assay: SPR equilibrium binding of epsin1 ENTH domain (wild type) to phosphoinositide-containing LUVs
T2 construct: The Epsin1 ENTH domain (1-158 amino acids) was subcloned; GST (C, cleaved yes); made in house; host or cells: E. coli BL21 RIL codon plus
T2 sequence (Q9Y6I3 1-158): T1 sequence (Q9Y6I3 1-158 S4W/M10C/C96A) with W4S, C10M, A96C
Text: The ENTH domain was engineered to introduce a single labeling site (M10C) on the membrane binding surface while removing an endogenous Cys (C96A). We also performed the S4W mutation to suppress its residual affinity for another lipid, phosphatidylinositol-3,4,5-trisphosphate (PtdIns(3,4,5)P3) (PtdIns(4,5)P2/PtdIns(3,4,5)P3=4 for wild type and >10 for the mutant) and to enhance the overall affinity for PtdIns(4,5)P2-containing membranes (ca. 4-fold) (Table 1).
With respect to FIG. 1, an L1 sensor chip was coated with POPC/POPS/PtdIns(4,5)P2 (77:20:3) LUVs. The proteins were incubated with a given concentration of IP3 for 5 minutes before injecting into the SPR instrument. Kinetic SPR measurements were performed in 20 mM Tris-HCL, pH 7.4, containing 0.16 KCl. […] A lower concentration of DAN-eENTH was used than that of PLCδ PH because the former has much higher affinity that the latter.
The Epsin1 ENTH domain (1-158 amino acids) was subcloned into the pGEX4T-1 vector and expressed as a […] glutathione S-transferase (GST)-tagged protein. The ENTH domain amino acid sequence is as follows:
E. coli BL21 RIL codon plus (Stratagene) cells were used for protein expression. Cells were grown in Luria broth media containing 100 μg/ml of ampicillin at 37° C. 0.1 mM of Isopropyl β-D-1-thiogalactopyranoside was added to induce over-expression of recombinant proteins when the OD600 reached 0.5-0.8 and cells were grown for additional 6 to 10 hours at 25° C. Cells were harvested by centrifugation and cell pellets were resuspended in 50 mM Tris-HCl buffer (pH 7.4) containing 160 mM KCl, 1 mM phenylmethanesulphonylfluoride, and 5 mM of dithiothreitol (DTT). Cells were lysed by sonication and the lysate was collected by centrifugation at 4° C. The GST-affinity resin (GenScript) for GST-tagged proteins or nickel-nitrilotriacetic acid resin (Qiagen, Valencia, Calif.) for His6-tagged proteins was added into the cell lysate and the mixture was gently shaken for 30 minutes at 4° C. The mixture was applied to a column and the column was washed once with 50 mM Tris-HCl buffer (pH 7.4) containing 160 mM KCl and 5 mM of DTT to reduce thiol group, and washed several times with the same buffer without DTT to remove DTT. For DAN labeling, 100 μg of acrylodan was added to the column at this stage and incubated 16 hours at 4° C. The excess acrylodan was removed by washing the column with the buffer several times. […] Purity and the concentration of the recombinant proteins were determined by sodium dodecylsulfate-polyacrylamide gel electrophoresis and bicinchoninic acid assay, respectively. The DAN labeling yield of eENTH, which was calculated as the molar ratio of DAN (determined spectrophotometrically at 391 nm using its extinction coefficient of 20,000 cm^−1 M^−1) to protein, was typically 60-70%. […]

[3] = molecular target: T3, DAN-eENTH (epsin 1 ENTH domain variant M10C/C96A/S4W, SEQ ID NO: 2, DAN labeled) mutant L6A/R7A/R8A (Homo sapiens, UniProt Q9Y6I3, C96A/L6A/M10C/R7A/R8A/S4W); assay: SPR binding of DAN-eENTH-L6A/R7A/R8A to phosphoinositide-containing LUVs; conditions: see Table 1
T3 construct: The Epsin1 ENTH domain (1-158 amino acids) was subcloned; GST (C, cleaved yes); made in house; host or cells: E. coli BL21 RIL codon plus
T3 sequence (Q9Y6I3 with tags, fused parts or gaps C96A): T1 sequence (Q9Y6I3 1-158 S4W/M10C/C96A) with L6A, R7A, R8A

With `CCCCCCCCCCCCCCCC(=O)OC[C@H](COP(=O)(O)O[C@@H]1[C@H](O)[C@H](O)[C@@H](OP(=O)(O)O)[C@H](OP(=O)(O)O)[C@H]1O)OC(=O)CCCCCCCCCCCCCCC` [PtdIns(4,5)P2, phosphatidylinositol-4,5-bisphosphate] the “Kd for PtdIns(4,5)P2 (F450/F520 ratiometric analysis)” value ([1]; F450/F520 versus [PtdIns(4,5)P2], LUVs) was 1.2+/−0.2 mol %, the “Kd for PtdIns(4,5)P2 (F450 analysis)” value ([1]; F450 versus [PtdIns(4,5)P2], 500 nM DAN-eENTH, LUVs) was 1.2+/−0.2 mol % and the pKd ([1]; F450 versus [PtdIns(4,5)P2], assumes only half of total lipids available to the sensor, read-out: Kd for PtdIns(4,5)P2 (F450 analysis, converted)) was 7.22. The pKd ([2]; SPR, POPC/POPS/PtdIns(4,5)P2 (77:20:3) LUVs, 20 mM Tris-HCl pH 7.4, 0.16 M KCl, read-out: Kd for PtdIns(4,5)P2) was 7.30, the “PtdIns(4,5)P2/PtdIns(3,4,5)P3 selectivity” value ([2]; wild type) was 4 and the “PtdIns(4,5)P2 affinity” value [3] was “devoid of PtdIns(4,5)P2 affinity”.
